This is an account of results in US11596591B2, “Manufacturing method for cosmetic composition of fucoidan and cosmetic composition comprising low molecular weight fucoidan using the same” (priority 2021, dated 2023).

The test system of this assay is mushroom tyrosinase. In words: in-vitro tyrosinase inhibition assay (substrate L-tyrosine). Type of assay: biochemical. The note with it: 200 μM, positive control. From the text:
An in-vitro tyrosinase inhibition assay was used to determine whether the whitening ingredients were directly affecting the regulation of the tyrosinase activity (using tyrosine as a substrate). The ingredients with a whitening effect mainly have a mechanism of action that inhibits some processes in the melanin biosynthetic pathway in vivo, which is the initial process in which tyrosinase is involved in the most important process in the synthetic pathway. Most of the whitening ingredients inhibit the activity of tyrosinase and reduce the production of melanin in the skin, resulting in offering a skin whitening effect. […] (1) Test method: For an in-vitro tyrosinase inhibition test of the test substance, mozuku-derived fucoidan extract, the tyrosinase inhibitory ability was measured using an in-vitro tyrosinase inhibition assay. […] The tyrosinase inhibitory effect of the test substance was evaluated by measuring the absorbance of DOPAchrome produced from the substrate L-tyrosine by the enzymatic reaction of tyrosinase. […] A microplate reader system (SpectraMax® i3x Multi Mode Detection Platform Molecular Devices, USA) was used to measure the absorbance at 475 nm. […] As determined by the Student's t test, P<0.05 was considered statistically significant. The in-vitro tyrosinase inhibition activity against the substrate L-tyrosine was calculated according to the following equation: […] […]

For `OC[C@H]1O[C@@H](Oc2ccc(O)cc2)[C@H](O)[C@@H](O)[C@@H]1O` [arbutin], the “tyrosinase inhibition activity against L-tyrosine with respect to the negative control” value worked out at 50.47±0.95%.
